Laboratory results: patent US20240383874A1, “BENZENE RING DERIVATIVE, AND COMPOSITION AND PHARMACEUTICAL USE THEREOF” (Xizang Haisco Pharmaceutical Co., Ltd., priority 2020, published 2024)
Structures can show the parent of a compound that is named as a salt. Where two headings read alike, the source gives them in different places.

What was measured:
full-length AR (AR-FL) = assay: Degradation experiment on full-length AR (AR-FL) in 22RV1 cells; type: cell-based; details: 24 h, relative to vehicle control
Protocol: (§1) Prostate cancer cells 22RV1 were purchased from ATCC, the cell medium was 1640+10% FBS, and the cells were cultured in an incubator at 37° C. under 5% CO2. On day 1, the cells in an exponential phase were collected. With a 1% css-FBS phenol red-free medium, the cell suspension was adjusted to a corresponding concentration and plated into a 6-well plate at 1 mL/well and 100000 cells/well. The next day, a 1% css-FBS phenol-free medium containing the compound to be tested was added, a 1% css-FBS phenol-free medium containing 0.2% DMSO was added to one well as DMSO vehicle control, and the 6-well plate was cultured in an incubator at 37° C. under 5% CO2. After 24 h, the cells were digested with pancreatin and collected into a 1.5 mL centrifuge tube. 15 μL of RIPA lysate (containing 1×protease inhibitor cocktail) was added to each well, and the cells were lysed on ice for 15 min and then centrifuged at 12000 g and 4° C. for 10 min. The supernatant protein samples were collected, and protein quantification was performed by a BCA method. AR-FL and AR-Vs were detected using fully automatic protein expression quantitative analysis, which involved diluting the protein to be tested to 1 mg/mL. 4 μL of the diluted protein samples were added to 1 μL of 5×Master Mix (provided in the kit), and the prepared samples were denatured at 95° C. for 5 min and placed on ice for use. The primary antibodies, AR (CST, 5153S) and β-actin (CST, 3700), were diluted with Antibody Diluent II (provided in the kit) at a dilution ratio of 1:20 and 1:200, respectively. The secondary antibody was a mixed goat anti-mouse and goat anti-rabbit secondary antibody in a ratio of 1:1, and the color development solution was a mixed solution of Lumino-S and Peroxide in a ratio of 1:1. The prepared reagents were successively added to an assay plate according to instructions of the kit and detected on an instrument. Western blot band processing was performed using “Compass for SW”, a fully automatic protein expression quantitative analysis software, in which western blot bands were automatically simulated based on signal values. The degradation rate of AR-FL (3) or AR-Vs (4) relative to vehicle control at different compound concentrations was calculated according to formulas (3) and (4), wherein AR-FLcompound was the relative peak area of AR-FL in the treated group, and AR-FLsolvent was the relative peak area of AR-FL in the vehicle control group; AR-Vscompound was the relative peak area of AR-Vs in the treated group, and AR-Vssolvent was the relative peak area of AR-Vs in the vehicle control group.
(§2) DC50 calculation: the compound concentration DC50 values at which the degradation rate of AR-FL or AR-Vs was 50% were calculated using OriginPro2015 software and analyzed using DoseResp function according to formula (3) or (4).

[1] = system: AR splice variants (AR-Vs); assay: Degradation experiment on AR splice variants (AR-Vs) in 22RV1 cells; type: cell-based; details: 24 h, relative to vehicle control
Protocol: as §1, §2

22RV1 cells = assay: Experiment 2 on inhibiting 22RV1 cell proliferation (7 days, CellTiter-Glo); type: cell-based; details: 1% css-FBS phenol red-free medium, incubated with compound 7 days, read-out: IC50 values on proliferation inhibition of 22RV1 cells
Summary of the method: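 22RV1 cells plated at 2000/well in phenol red-free medium with 1% css-FBS and treated next day with compound for 7 days at 37 °C. Viability read by CellTiter-Glo luminescence relative to DMSO vehicle; IC50 from dose-response fit.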

[2] = Pharmacokinetic test in rats; type: in vivo; details: rat, po; male SD rats, single dose i.g. 5 mg/kg, plasma, 0-24 h
Protocol: Test objective: in this test, a single dose of test compounds was administered to SD rats intragastrically, and the concentrations of the test compounds in plasma of the rats were measured to evaluate pharmacokinetic characteristics of the test compounds in the rats.
Test animals: male SD rats, 200-250 g, 6-8 weeks old, 3 rats/compound, purchased from Chengdu Dossy Experimental Animals Co., Ltd.
Test method: on the day of the test, 3 SD rats were randomly grouped according to their body weights. The animals were fasted with water available for 12 to 14 hours one day before the administration of a test compound, and were fed 4 hours after the administration.
Sampling: before and after the administration, 0.1 mL of blood was taken from the orbits of the rats under isoflurane anesthesia, and placed in an EDTAK2 centrifuge tube. Centrifugation was carried out at 5000 rpm at 4C for […], and the plasma was collected.
Time points for plasma collection in G1 group: 0, 5 min, 15 min, 30 min, 1 h, 2 h, 4 h, 6 h, 8 h, and 24 h.
Before analysis and detection, all samples were stored at −80° C. The samples were analyzed quantitatively by LC-MS/MS.

| SMILES | AR-FL Dmax % (maximum degradation rate) (full-length AR (AR-FL)) | AR-Vs Dmax % (maximum degradation rate) [1] | IC50 (22RV1 cells) | IC50 (22RV1 cells; Homo sapiens, 22Rv1, 168 h) | AUC(0-t) [2] |
| --- | --- | --- | --- | --- | --- |
| CC(C)(c1ccc(OCc2ccnc(N3CCN(C4CCN(C5CN(c6ccc7c(c6)C(=O)N(C6CCC(=O)NC6=O)C7=O)C5)CC4)CC3)n2)cc1)c1cc(Cl)c(OCCCl)c(C#N)c1 (centres unmarked) [Compound 5 trifluoroacetate, 3-chloro-2-(2-chloroethoxy)-5-(2-(4-((2-(4-(1-(1-(2-(2,6-dioxopiperidin-3-yl)-1,3-dioxoisoindolin-5-yl)azetidin-3-yl)piperidin-4-yl)piperazin-1-yl)pyrimidin-4-yl)methoxy)phenyl)propan-2-yl)benzonitrile (Compound 5) trifluoroacetate] | 52.5% | – | – | – | – |
| Cn1c(=O)n(C2CCC(=O)NC2=O)c2cccc(CN3CC(N4CCC(N5CCN(c6nccc(COc7ccc(C(C)(C)c8cc(Cl)c(OCCCl)c(C#N)c8)cc7)n6)CC5)CC4)C3)c21 (centres unmarked) [Compound 6 trifluoroacetate, 3-chloro-2-(2-chloroethoxy)-5-(2-(4-((2-(4-(1-(1-((1-(2,6-dioxopiperidin-3-yl)-3-methyl-2-oxo-2,3-dihydro-1H-benzol[d]imidazol-4-yl)methyl)azetidin-3-yl)piperidin-4-yl)piperazin-1-yl)pyrimidin-4-yl)methoxy)phenyl)propan-2-yl)benzonitrile (Compound 6) trifluoroacetate] | 57.6% | – | – | – | – |
| Cn1c(=O)n(C2CCC(=O)NC2=O)c2cccc(CN3CC(N4CCC(N5CCN(c6nccc(COc7ccc(C(C)(C)c8cc(Cl)cc(C#N)c8)cc7)n6)CC5)CC4)C3)c21 (centres unmarked) [Compound 9 trifluoroacetate, 3-chloro-5-(2-(4-((2-(4-(1-(1-((1-(2,6-dioxopiperidin-3-yl)-3-methyl-2-oxo-2,3-dihydro-1H-benzo[d]imidazol-4-yl)methyl)azetidin-3-yl)piperidin-4-yl)piperazin-1-yl)pyrimidin-4-yl)methoxy)phenyl)propan-2-yl)benzonitrile (Compound 9) trifluoroacetate] | 68.3% | 76.8% | – | – | – |
| CC(C)(c1ccc(OCc2ccnc(N3CCN(C4CCN(C5CN(c6ccc7c(c6)C(=O)N(C6CCC(=O)NC6=O)C7=O)C5)CC4)CC3)n2)cc1)c1cc(Cl)cc(C#N)c1 (centres unmarked) [Compound 10, 3-chloro-5-(2-(4-((2-(4-(1-(1-(2-(2,6-dioxopiperidin-3-yl)-1,3-dioxoisoindolin-5-yl)azetidin-3-yl)piperidin-4-yl)piperazin-1-yl)pyrimidin-4-yl)methoxy)phenyl)propan-2-yl)benzonitrile] | – | 64% | 562 nM | – | – |
| CCOc1c(Cl)cc(C(C)(C)c2ccc(OCc3ccnc(N4CCN(C5CCN(C6CN(Cc7cccc8c7n(C)c(=O)n8C7CCC(=O)NC7=O)C6)CC5)CC4)n3)cc2)cc1C#N (centres unmarked) [Compound 18, 3-chloro-5-(2-(4-((2-(4-(1-(1-((1-(2,6-dioxopiperidin-3-yl)-3-methyl-2-oxo-2,3-dihydro-1H-benzo[d]imidazol-4-yl)methyl)azetidin-3-yl)piperidin-4-yl)piperazin-1-yl)pyrimidin-4-yl)methoxy)phenyl)propan-2-yl)-2-ethoxybenzonitrile] | 53% | 91% | 452 nM | – | – |
| CC(C)(c1ccc(OCc2ccnc(N3CCC(CN4CCC(C5CCN(c6ccc(C(=O)NC7CCC(=O)NC7=O)nc6)CC5)CC4)CC3)n2)cc1)c1cc(Cl)cc(C#N)c1 (centres unmarked) [Compound 110 trifluoroacetate, 5-(1′-((1-(4-((4-(2-(3-chloro-5-cyanophenyl)propan-2-yl)phenoxy)methyl)pyrimidin-2-yl)piperidin-4-yl)methyl)-[4,4′-bipiperidin]-1-yl)-N-(2,6-dioxopiperidin-3-yl)picolinamide] | – | 56% | – | 446 nM | 563 ± 350 ng·h/mL |
| COc1c(Cl)cc(C(C)(C)c2ccc(OCc3ccnc(N4CCC(CN5CCC(N6CCC(c7ccc8c(c7)n(C)c(=O)n8C7CCC(=O)NC7=O)CC6)CC5)CC4)n3)cc2)cc1C#N (centres unmarked) [Compound 116 trifluoroacetate, 3-chloro-5-(2-(4-((2-(4-((4-(1-(2,6-dioxopiperidin-3-yl)-3-methyl-2-oxo-2,3-dihydro-1H-benzo[d]imidazol-5-yl)-[1,4′-bipiperidin]-1′-yl)methyl)piperidin-1-yl)pyrimidin-4-yl)methoxy)phenyl)propan-2-yl)-2-methoxybenzonitrile] | 77% | 67% | – | 821 nM | – |
| Cn1c(=O)n(C2CCC(=O)NC2=O)c2cccc(CN3CCC(CN4CCC(C5CCN(c6nccc(COc7ccc(C(C)(C)c8cc(Cl)c(OCCCl)c(C#N)c8)cc7)n6)CC5)CC4)CC3)c21 (centres unmarked) [Compound 126 trifluoroacetate, 3-chloro-2-(2-chloroethoxy)-5-(2-(4-((2-(1′-((1-((1-(2,6-dioxopiperidin-3-yl)-3-methyl-2-oxo-2,3-dihydro-1H-benzo[d]imidazol-4-yl)methyl)piperidin-4-yl)methyl)-[4,4′-bipiperidin]-1-yl)pyrimidin-4-yl)methoxy)phenyl)propan-2-yl)benzonitrile] | 98% | 95% | – | – | – |
| CC(C)(c1ccc(OCc2ccnc(N3CCC4(CCN(CC5CC6(CCN(c7ccc8c(c7)C(=O)N(C7CCC(=O)NC7=O)C8=O)CC6)C5)CC4)CC3)n2)cc1)c1cc(Cl)cc(C#N)c1 (centres unmarked) [Compound 129, 3-chloro-5-(2-(4-((2-(9-((7-(2-(2,6-dioxopiperidin-3-yl)-1,3-dioxoisoindolin-5-yl)-7-azaspiro[3.5]nonan-2-yl)methyl)-3,9-diazaspiro[5.5]undecan-3-yl)pyrimidin-4-yl)methoxy)phenyl)propan-2-yl)benzonitrile] | – | – | 569 nM | – | 812 ± 304 ng·h/mL |
| CC(C)(c1ccc(OCc2ccnc(N3CCC(CN4CCC(C5CCN(c6ccc7c(c6)C(=O)N(C6CCC(=O)NC6=O)C7=O)CC5)CC4)C3)n2)cc1)c1cc(Cl)cc(C#N)c1 (centres unmarked) [Compound 130, 3-chloro-5-(2-(4-((2-(3-((1′-(2-(2,6-dioxopiperidin-3-yl)-1,3-dioxoisoindolin-5-yl)-[4,4′-bipiperidin]-1-yl)methyl)pyrrolidin-1-yl)pyrimidin-4-yl)methoxy)phenyl)propan-2-yl)benzonitrile] | – | – | 483 nM | – | 665 ± 264 ng·h/mL |
| CC(C)(c1ccc(OCc2ccnc(N3CCC(N4CCC(C5CCN(c6ccc7c(c6)C(=O)N(C6CCC(=O)NC6=O)C7=O)CC5)CC4)CC3)n2)cc1)c1cc(Cl)cc(C#N)c1 (centres unmarked) [Compound 131, 3-chloro-5-(2-(4-((2-(1″-(2-(2,6-dioxopiperidin-3-yl)-1,3-dioxoisoindolin-5-yl)-[4,1′:4′,4″-terpiperidin]-1-yl)pyrimidin-4-yl)methoxy)phenyl)propan-2-yl)benzonitrile] | – | – | 507 nM | – | 446 ± 225 ng·h/mL |
